Marks after values point to notes of the source that are not given here.
Test: Solubilization of ticagrelor in unbuffered cyclodextrin stock solutions in milli Q water, appearance on shaking platform;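 note: plus means clear and fully dissolved while plus-minus means clear solution with precipitation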
Format: physicochemical
Procedure: In a first example two different types of cyclodextrin were used and compared for the solubilization of ticagrelor. An unbuffered stock solution of HPBCD or SBECD was made in water at the target concentrations of 20 w/w %, 25 w/w %, 30 w/w %, 35 w/w % and 40 w/w %. Ticagrelor was added slowly under vortex. Ticagrelor was used at concentrations of 5, 10 or 14 mg/ml in milli Q water. The ticagrelor-cyclodextrin solutions were left on a shaking platform. No sonification or heat was applied.

With `CCCSc1nc(N[C@@H]2C[C@H]2c2ccc(F)c(F)c2)c2nnn([C@@H]3C[C@H](OCCO)[C@@H](O)[C@H]3O)c2n1` [ticagrelor, (1S,2S,3R,5S)-3-{7-[(1R,2S)-2-(3,4-difluorophenyl)cyclopropylamino]5-(propylthio)-3H-(1,2,3)triazolo (4,5-D)pyrimidin-3-yl}-5-(2 hydroxyethoxy) cyclopentane-1,2-diol] the Appearance in cyclodextrin (HPβCD 20% w/w, ticagrelor 5 mg/ml, after 5 min of shaking) was “− (translucent solution with precipitation)”, the Appearance in cyclodextrin (HPβCD 20% w/w, ticagrelor 5 mg/ml, after 30 min of shaking) was “+/−” and the Appearance in cyclodextrin (HPβCD 20% w/w, ticagrelor 5 mg/ml, after 60 min of shaking) was “+/−”. The Appearance in cyclodextrin (HPβCD 20% w/w, ticagrelor 5 mg/ml, after 3 h of shaking) was “+/−”, the Appearance in cyclodextrin (HPβCD 20% w/w, ticagrelor 5 mg/ml, after overnight shaking) was “− (translucent solution with precipitation)” and the Appearance in cyclodextrin (HPβCD 20% w/w, ticagrelor 10 mg/ml, after 5 min of shaking) was “− (translucent solution with precipitation)”. The Appearance in cyclodextrin (HPβCD 20% w/w, ticagrelor 10 mg/ml, after 30 min of shaking) was “− (translucent solution with precipitation)”, the Appearance in cyclodextrin (HPβCD 20% w/w, ticagrelor 10 mg/ml, after 60 min of shaking) was “− (translucent solution with precipitation)” and the Appearance in cyclodextrin (HPβCD 20% w/w, ticagrelor 10 mg/ml, after 3 h of shaking) was “− (translucent solution with precipitation)”. The Appearance in cyclodextrin (HPβCD 20% w/w, ticagrelor 10 mg/ml, after overnight shaking) was “− (translucent solution with precipitation)”, the Appearance in cyclodextrin (HPβCD 20% w/w, ticagrelor 14 mg/ml, after 5 min of shaking) was “− (translucent solution with precipitation)” and the Appearance in cyclodextrin (HPβCD 20% w/w, ticagrelor 14 mg/ml, after 30 min of shaking) was “− (translucent solution with precipitation)”. For the same compound, the Appearance in cyclodextrin (HPβCD 20% w/w, ticagrelor 14 mg/ml, after 60 min of shaking) was “− (translucent solution with precipitation)”, the Appearance in cyclodextrin (HPβCD 20% w/w, ticagrelor 14 mg/ml, after 3 h of shaking) was “− (translucent solution with precipitation)” and the Appearance in cyclodextrin (HPβCD 20% w/w, ticagrelor 14 mg/ml, after overnight shaking) was “− (translucent solution with precipitation)”. The Appearance in cyclodextrin (HPβCD 25% w/w, ticagrelor 5 mg/ml, after 5 min of shaking) was “− (translucent solution with precipitation)”, the Appearance in cyclodextrin (HPβCD 25% w/w, ticagrelor 5 mg/ml, after 30 min of shaking) was “+/−” and the Appearance in cyclodextrin (HPβCD 25% w/w, ticagrelor 5 mg/ml, after 60 min of shaking) was “+/−”. For the same compound, the Appearance in cyclodextrin (HPβCD 25% w/w, ticagrelor 5 mg/ml, after 3 h of shaking) was “+/−”, the Appearance in cyclodextrin (HPβCD 25% w/w, ticagrelor 5 mg/ml, after overnight shaking, after one hour of sonication) was “+* (clear, appeared completely dissolved)” and the Appearance in cyclodextrin (HPβCD 25% w/w, ticagrelor 10 mg/ml, after 5 min of shaking) was “− (translucent solution with precipitation)”. For the same compound, the Appearance in cyclodextrin (HPβCD 25% w/w, ticagrelor 10 mg/ml, after 30 min of shaking) was “− (translucent solution with precipitation)”, the Appearance in cyclodextrin (HPβCD 25% w/w, ticagrelor 10 mg/ml, after 60 min of shaking) was “− (translucent solution with precipitation)” and the Appearance in cyclodextrin (HPβCD 25% w/w, ticagrelor 10 mg/ml, after 3 h of shaking) was “− (translucent solution with precipitation)”. The Appearance in cyclodextrin (HPβCD 25% w/w, ticagrelor 10 mg/ml, after overnight shaking) was “− (translucent solution with precipitation)”, the Appearance in cyclodextrin (HPβCD 25% w/w, ticagrelor 14 mg/ml, after 5 min of shaking) was “− (translucent solution with precipitation)” and the Appearance in cyclodextrin (HPβCD 25% w/w, ticagrelor 14 mg/ml, after 30 min of shaking) was “− (translucent solution with precipitation)”. For the same compound, the Appearance in cyclodextrin (HPβCD 25% w/w, ticagrelor 14 mg/ml, after 60 min of shaking) was “− (translucent solution with precipitation)”, the Appearance in cyclodextrin (HPβCD 25% w/w, ticagrelor 14 mg/ml, after 3 h of shaking) was “− (translucent solution with precipitation)” and the Appearance in cyclodextrin (HPβCD 25% w/w, ticagrelor 14 mg/ml, after overnight shaking) was “− (translucent solution with precipitation)”. For the same compound, the Appearance in cyclodextrin (HPβCD 30% w/w, ticagrelor 5 mg/ml, after 5 min of shaking) was “− (translucent solution with precipitation)”, the Appearance in cyclodextrin (HPβCD 30% w/w, ticagrelor 5 mg/ml, after 30 min of shaking) was “+/−” and the Appearance in cyclodextrin (HPβCD 30% w/w, ticagrelor 5 mg/ml, after 60 min of shaking) was “+/−”. The Appearance in cyclodextrin (HPβCD 30% w/w, ticagrelor 5 mg/ml, after 3 h of shaking) was “+/−”, the Appearance in cyclodextrin (HPβCD 30% w/w, ticagrelor 5 mg/ml, after overnight shaking) was “+ (clear, appeared completely dissolved)” and the Appearance in cyclodextrin (HPβCD 30% w/w, ticagrelor 10 mg/ml, after 5 min of shaking) was “− (translucent solution with precipitation)”. The Appearance in cyclodextrin (HPβCD 30% w/w, ticagrelor 10 mg/ml, after 30 min of shaking) was “− (translucent solution with precipitation)”, the Appearance in cyclodextrin (HPβCD 30% w/w, ticagrelor 10 mg/ml, after 60 min of shaking) was “− (translucent solution with precipitation)” and the Appearance in cyclodextrin (HPβCD 30% w/w, ticagrelor 10 mg/ml, after 3 h of shaking) was “− (translucent solution with precipitation)”. The Appearance in cyclodextrin (HPβCD 30% w/w, ticagrelor 10 mg/ml, after overnight shaking) was “− (translucent solution with precipitation)”, the Appearance in cyclodextrin (HPβCD 30% w/w, ticagrelor 14 mg/ml, after 5 min of shaking) was “− (translucent solution with precipitation)” and the Appearance in cyclodextrin (HPβCD 30% w/w, ticagrelor 14 mg/ml, after 30 min of shaking) was “− (translucent solution with precipitation)”. The Appearance in cyclodextrin (HPβCD 30% w/w, ticagrelor 14 mg/ml, after 60 min of shaking) was “− (translucent solution with precipitation)”, the Appearance in cyclodextrin (HPβCD 30% w/w, ticagrelor 14 mg/ml, after 3 h of shaking) was “− (translucent solution with precipitation)” and the Appearance in cyclodextrin (HPβCD 30% w/w, ticagrelor 14 mg/ml, after overnight shaking) was “− (translucent solution with precipitation)”. The Appearance in cyclodextrin (HPβCD 35% w/w, ticagrelor 5 mg/ml, after 5 min of shaking) was “+/−”, the Appearance in cyclodextrin (HPβCD 35% w/w, ticagrelor 5 mg/ml, after 30 min of shaking) was “+/−” and the Appearance in cyclodextrin (HPβCD 35% w/w, ticagrelor 5 mg/ml, after 60 min of shaking) was “+/−”. For the same compound, the Appearance in cyclodextrin (HPβCD 35% w/w, ticagrelor 5 mg/ml, after 3 h of shaking) was “+/−”, the Appearance in cyclodextrin (HPβCD 35% w/w, ticagrelor 5 mg/ml, after overnight shaking) was “+ (clear, appeared completely dissolved)” and the Appearance in cyclodextrin (HPβCD 35% w/w, ticagrelor 10 mg/ml, after 5 min of shaking) was “− (translucent solution with precipitation)”. For the same compound, the Appearance in cyclodextrin (HPβCD 35% w/w, ticagrelor 10 mg/ml, after 30 min of shaking) was “+/−”, the Appearance in cyclodextrin (HPβCD 35% w/w, ticagrelor 10 mg/ml, after 60 min of shaking) was “+/−” and the Appearance in cyclodextrin (HPβCD 35% w/w, ticagrelor 10 mg/ml, after 3 h of shaking) was “+/−”. The Appearance in cyclodextrin (HPβCD 35% w/w, ticagrelor 10 mg/ml, after overnight shaking) was “+ (clear, appeared completely dissolved)”, the Appearance in cyclodextrin (HPβCD 35% w/w, ticagrelor 14 mg/ml, after 5 min of shaking) was “− (translucent solution with precipitation)” and the Appearance in cyclodextrin (HPβCD 35% w/w, ticagrelor 14 mg/ml, after 30 min of shaking) was “+/−”. The Appearance in cyclodextrin (HPβCD 35% w/w, ticagrelor 14 mg/ml, after 60 min of shaking) was “+/−”, the Appearance in cyclodextrin (HPβCD 35% w/w, ticagrelor 14 mg/ml, after 3 h of shaking) was “+/−” and the Appearance in cyclodextrin (HPβCD 35% w/w, ticagrelor 14 mg/ml, after overnight shaking) was “+/−”. For the same compound, the Appearance in cyclodextrin (HPβCD 40% w/w, ticagrelor 5 mg/ml, after 5 min of shaking) was “+ (clear, appeared completely dissolved)”, the Appearance in cyclodextrin (HPβCD 40% w/w, ticagrelor 5 mg/ml, after 30 min of shaking) was “+ (clear, appeared completely dissolved)” and the Appearance in cyclodextrin (HPβCD 40% w/w, ticagrelor 5 mg/ml, after 60 min of shaking) was “+ (clear, appeared completely dissolved)”. For the same compound, the Appearance in cyclodextrin (HPβCD 40% w/w, ticagrelor 5 mg/ml, after 3 h of shaking) was “+ (clear, appeared completely dissolved)”, the Appearance in cyclodextrin (HPβCD 40% w/w, ticagrelor 5 mg/ml, after overnight shaking) was “+ (clear, appeared completely dissolved)” and the Appearance in cyclodextrin (HPβCD 40% w/w, ticagrelor 10 mg/ml, after 5 min of shaking) was “− (translucent solution with precipitation)”. The Appearance in cyclodextrin (HPβCD 40% w/w, ticagrelor 10 mg/ml, after 30 min of shaking) was “+/−”, the Appearance in cyclodextrin (HPβCD 40% w/w, ticagrelor 10 mg/ml, after 60 min of shaking) was “+/−” and the Appearance in cyclodextrin (HPβCD 40% w/w, ticagrelor 10 mg/ml, after 3 h of shaking) was “+/−”. For the same compound, the Appearance in cyclodextrin (HPβCD 40% w/w, ticagrelor 10 mg/ml, after overnight shaking) was “+ (clear, appeared completely dissolved)”, the Appearance in cyclodextrin (HPβCD 40% w/w, ticagrelor 14 mg/ml, after 5 min of shaking) was “− (translucent solution with precipitation)” and the Appearance in cyclodextrin (HPβCD 40% w/w, ticagrelor 14 mg/ml, after 30 min of shaking) was “+/−”. The Appearance in cyclodextrin (HPβCD 40% w/w, ticagrelor 14 mg/ml, after 60 min of shaking) was “+/−”.

From patent US20260007599A1, “TICAGRELOR IV FORMULATIONS FOR USE IN THE TREATMENT OF GRAM-POSITIVE BACTEREMIA” (Hyloris Developments SA, priority 2023, published 2026)
